Reference: US12391664B2, “GluN2C/D subunit selective antagonists of the N-methyl-D-aspartate receptor” (Emory University, priority 2018, dated 2025)
Where two headings read alike, the source gives them in different places.

What was measured:
Assay type in all cases: cell-based
[1] = target: T1, recombinant rat GluN1/GluN2A (Rattus norvegicus, UniProt Q00959); experiment: Two-electrode voltage-clamp recordings in Xenopus laevis oocytes, GluN2A; conditions: oocytes, 100 μM glutamate and 30 μM glycine
T1 construct: expressed in transfected cells; host or cells: Xenopus laevis oocytes injected with cRNA (GluN1:GluN2 ratio 1:2)
T1 sequence (Q00959 23-1464, other chains not shown): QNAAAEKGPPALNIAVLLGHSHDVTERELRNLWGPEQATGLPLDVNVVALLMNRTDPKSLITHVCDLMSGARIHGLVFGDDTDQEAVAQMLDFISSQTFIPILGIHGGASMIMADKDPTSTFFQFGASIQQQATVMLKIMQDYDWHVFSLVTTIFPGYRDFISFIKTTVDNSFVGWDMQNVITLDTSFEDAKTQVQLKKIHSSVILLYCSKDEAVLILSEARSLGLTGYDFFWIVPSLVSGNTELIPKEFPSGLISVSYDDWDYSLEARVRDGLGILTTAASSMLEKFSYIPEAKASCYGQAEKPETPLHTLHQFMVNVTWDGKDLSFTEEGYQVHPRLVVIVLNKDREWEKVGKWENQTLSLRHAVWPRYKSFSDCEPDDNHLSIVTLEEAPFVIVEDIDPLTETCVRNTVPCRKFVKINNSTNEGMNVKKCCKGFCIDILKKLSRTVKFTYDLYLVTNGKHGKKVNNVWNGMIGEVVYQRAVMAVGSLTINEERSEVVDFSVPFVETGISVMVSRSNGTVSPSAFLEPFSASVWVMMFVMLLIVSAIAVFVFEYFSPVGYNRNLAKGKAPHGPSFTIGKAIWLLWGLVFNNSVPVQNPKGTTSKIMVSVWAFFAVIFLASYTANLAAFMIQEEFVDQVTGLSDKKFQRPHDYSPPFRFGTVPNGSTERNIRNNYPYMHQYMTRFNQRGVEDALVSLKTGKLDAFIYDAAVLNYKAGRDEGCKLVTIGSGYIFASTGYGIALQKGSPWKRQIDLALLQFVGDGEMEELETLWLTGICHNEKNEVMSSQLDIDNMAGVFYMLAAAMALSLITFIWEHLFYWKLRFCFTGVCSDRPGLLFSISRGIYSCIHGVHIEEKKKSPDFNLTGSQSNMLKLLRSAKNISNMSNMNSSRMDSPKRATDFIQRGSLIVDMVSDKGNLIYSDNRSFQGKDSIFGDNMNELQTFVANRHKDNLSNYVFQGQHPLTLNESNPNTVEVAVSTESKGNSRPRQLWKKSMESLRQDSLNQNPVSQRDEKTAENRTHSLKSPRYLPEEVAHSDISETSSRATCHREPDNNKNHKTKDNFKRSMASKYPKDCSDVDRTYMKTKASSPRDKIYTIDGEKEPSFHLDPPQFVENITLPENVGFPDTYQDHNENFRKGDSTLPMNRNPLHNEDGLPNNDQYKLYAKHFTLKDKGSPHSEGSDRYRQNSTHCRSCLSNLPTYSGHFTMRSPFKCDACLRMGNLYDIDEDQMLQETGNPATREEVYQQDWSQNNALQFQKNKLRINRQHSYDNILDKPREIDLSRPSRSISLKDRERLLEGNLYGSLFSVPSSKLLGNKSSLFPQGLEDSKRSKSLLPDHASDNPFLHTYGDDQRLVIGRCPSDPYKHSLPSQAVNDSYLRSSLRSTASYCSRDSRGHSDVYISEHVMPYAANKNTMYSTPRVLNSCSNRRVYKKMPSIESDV
Procedure: (§1) All target compounds were evaluated for activity by the Traynelis laboratory at Emory University using two-electrode voltage-clamp recordings performed in Xenopus laevis oocytes expressing recombinant GluN2A-D subunits (Table 1). […] Two ester compounds 997-65 and 997-66 also performed no inhibition at GluN2A to GluN2D receptors. […] Consequently, for the compounds that Acker et al. already published, it was necessary to increase the concentration to 100 μM when collecting data for a concentration effect curve. […] Therefore, under this condition, we can only conclude that compound 997-67 remained potent at GluN2C/D-containing receptors, but its selectivity over GluN2A- and GluN2B-containing receptors could not be compared to 997-57. […] Finally, replacing the carboxylic acid to the bio-isostere amide yielded compounds 997-96 and 997-115, which dropped the potency 2- to 4-fold in comparison to their corresponding acids 997-74 and 997-114.
(§2) Two-electrode voltage-clamp recordings were performed in Xenopus laevis oocytes that were injected with mRNA to express recombinant rat GluN1/GluN2A, GluN1/GluN2B, GluN1/GluN2C, and GluN1/GluN2D. The recordings using unfertilized oocytes from Xenopus laevis were permitted by Emory University Institutional Animal Care and Use Committee (IACUC). An automatic injector (Nanoject II, Drummond Scientific) was used for cRNA injection using the pipettes filled with mineral oil. The cRNA that transcribed in vitro via the mMessage Machine kit (Ambion) was diluted with nuclease-free water, and then injected at GluN1/GluN2 with a ratio of 1:2. The oocytes were stored in Barth's solution that contained 88 mM NaCl, 5.0 mM Tris-HCl, 2.4 mM NaHCO3, 1.0 mM KCl, 0.84 mM MgSO4, 0.41 mM CaCl2, 0.33 mM Ca(NO3)2, 0.1 mg/ml gentamycin sulfate, 1.0 U/ml penicillin, and 1 μg/ml streptomycin at a pH of 7.4 and temperatures of 15-17° C. for two to five days before the two-electrode voltage-clamp recordings. When recording, the oocytes were placed in a perfusion chamber and continually washed with the recording solution comprised of 90 mM NaCl, 1.0 mM KCl, 0.50 mM BaCl2, 0.005 mM EDTA, and 10 mM HEPES at a pH of 7.4 and a temperature of 23° C. Glass electrodes with a tip resistance of 0.5 to 2.5 MΩ were obtained from thin-walled glass capillary tubes. Voltage electrodes and current electrodes were filled with 0.3 M and 3.0 M KCl, respectively. The recordings were executed with the oocytes membrane potential holding at −40 m V by an OC-725 amplifier (Warner Instrument Co). All compounds were dissolved in dimethyl sulfoxide (DMSO) as 20 mM stock solutions and future diluted to reach the desired concentration (0.05-0.5% (vol/vol) DMSO) in recording solution comprised of 30 μM glycine and 100 μM glutamate. Each compound was recorded 3-7 times in the least 4 oocytes from at least 2 different Xenopus laevis.
(§3) To evaluate the inhibition of compounds, the concentration-response curve was fitted with the average two-electrode voltage-clamp recording results with the equation
(§4) [formula] • where IC50 is the concentration of compounds that inhibit half maximal of the current response and N is the Hill slope.

[2] = target: T2, recombinant rat GluN1/GluN2B (Rattus norvegicus, UniProt Q00960); experiment: Two-electrode voltage-clamp recordings in Xenopus laevis oocytes, GluN2B; conditions: oocytes, 100 μM glutamate and 30 μM glycine
T2 construct: expressed in transfected cells; host or cells: Xenopus laevis oocytes injected with cRNA (GluN1:GluN2 ratio 1:2)
T2 sequence (Q00960 27-1482, other chains not shown): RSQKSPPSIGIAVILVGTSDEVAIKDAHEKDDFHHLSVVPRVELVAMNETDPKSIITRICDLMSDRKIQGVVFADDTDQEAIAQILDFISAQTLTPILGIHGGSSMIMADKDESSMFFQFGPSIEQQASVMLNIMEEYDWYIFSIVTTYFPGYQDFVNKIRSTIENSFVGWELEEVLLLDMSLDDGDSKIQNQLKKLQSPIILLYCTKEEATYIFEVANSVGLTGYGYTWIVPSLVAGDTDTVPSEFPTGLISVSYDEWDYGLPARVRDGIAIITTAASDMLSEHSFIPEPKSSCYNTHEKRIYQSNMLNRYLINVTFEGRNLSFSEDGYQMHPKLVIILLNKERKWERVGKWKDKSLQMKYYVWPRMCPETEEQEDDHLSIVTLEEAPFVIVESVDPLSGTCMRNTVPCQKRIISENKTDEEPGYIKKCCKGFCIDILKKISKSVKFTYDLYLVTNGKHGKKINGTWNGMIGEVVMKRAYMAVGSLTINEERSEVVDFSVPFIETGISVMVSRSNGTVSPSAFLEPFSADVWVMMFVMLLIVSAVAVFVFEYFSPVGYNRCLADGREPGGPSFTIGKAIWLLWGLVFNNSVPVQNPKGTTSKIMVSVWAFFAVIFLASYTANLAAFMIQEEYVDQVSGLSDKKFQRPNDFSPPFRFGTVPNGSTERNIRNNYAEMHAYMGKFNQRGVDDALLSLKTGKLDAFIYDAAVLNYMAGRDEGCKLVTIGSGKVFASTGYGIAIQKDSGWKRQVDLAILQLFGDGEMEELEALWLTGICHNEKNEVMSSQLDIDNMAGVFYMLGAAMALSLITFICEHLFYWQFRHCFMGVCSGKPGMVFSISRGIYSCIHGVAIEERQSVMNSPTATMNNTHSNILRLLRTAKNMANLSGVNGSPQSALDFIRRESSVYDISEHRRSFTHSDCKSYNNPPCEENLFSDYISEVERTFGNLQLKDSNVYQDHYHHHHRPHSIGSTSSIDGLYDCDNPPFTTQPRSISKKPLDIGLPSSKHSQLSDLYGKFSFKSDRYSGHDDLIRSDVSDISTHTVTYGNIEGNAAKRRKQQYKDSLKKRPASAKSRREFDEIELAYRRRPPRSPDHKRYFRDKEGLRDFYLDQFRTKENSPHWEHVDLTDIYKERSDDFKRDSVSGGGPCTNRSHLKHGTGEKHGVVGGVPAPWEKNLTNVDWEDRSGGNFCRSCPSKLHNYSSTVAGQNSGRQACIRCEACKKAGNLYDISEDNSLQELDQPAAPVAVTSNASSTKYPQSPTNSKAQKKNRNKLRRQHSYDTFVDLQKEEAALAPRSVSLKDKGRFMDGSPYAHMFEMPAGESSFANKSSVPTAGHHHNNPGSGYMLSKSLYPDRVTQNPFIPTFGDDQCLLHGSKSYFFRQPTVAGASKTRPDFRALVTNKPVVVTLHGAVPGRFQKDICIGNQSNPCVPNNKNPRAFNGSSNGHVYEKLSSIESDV
Procedure: as §1, §2, §3, §4

[3] = target: T3, recombinant rat GluN1/GluN2C (Rattus norvegicus, UniProt P35439+Q00961); experiment: Two-electrode voltage-clamp recordings in Xenopus laevis oocytes, GluN2C; conditions: oocytes, 100 μM glutamate and 30 μM glycine; read-out: GluN2C IC50
T3 construct: expressed in transfected cells; host or cells: Xenopus laevis oocytes injected with cRNA (GluN1:GluN2 ratio 1:2)
T3 sequence (Q00961 20-1237, other chains not shown): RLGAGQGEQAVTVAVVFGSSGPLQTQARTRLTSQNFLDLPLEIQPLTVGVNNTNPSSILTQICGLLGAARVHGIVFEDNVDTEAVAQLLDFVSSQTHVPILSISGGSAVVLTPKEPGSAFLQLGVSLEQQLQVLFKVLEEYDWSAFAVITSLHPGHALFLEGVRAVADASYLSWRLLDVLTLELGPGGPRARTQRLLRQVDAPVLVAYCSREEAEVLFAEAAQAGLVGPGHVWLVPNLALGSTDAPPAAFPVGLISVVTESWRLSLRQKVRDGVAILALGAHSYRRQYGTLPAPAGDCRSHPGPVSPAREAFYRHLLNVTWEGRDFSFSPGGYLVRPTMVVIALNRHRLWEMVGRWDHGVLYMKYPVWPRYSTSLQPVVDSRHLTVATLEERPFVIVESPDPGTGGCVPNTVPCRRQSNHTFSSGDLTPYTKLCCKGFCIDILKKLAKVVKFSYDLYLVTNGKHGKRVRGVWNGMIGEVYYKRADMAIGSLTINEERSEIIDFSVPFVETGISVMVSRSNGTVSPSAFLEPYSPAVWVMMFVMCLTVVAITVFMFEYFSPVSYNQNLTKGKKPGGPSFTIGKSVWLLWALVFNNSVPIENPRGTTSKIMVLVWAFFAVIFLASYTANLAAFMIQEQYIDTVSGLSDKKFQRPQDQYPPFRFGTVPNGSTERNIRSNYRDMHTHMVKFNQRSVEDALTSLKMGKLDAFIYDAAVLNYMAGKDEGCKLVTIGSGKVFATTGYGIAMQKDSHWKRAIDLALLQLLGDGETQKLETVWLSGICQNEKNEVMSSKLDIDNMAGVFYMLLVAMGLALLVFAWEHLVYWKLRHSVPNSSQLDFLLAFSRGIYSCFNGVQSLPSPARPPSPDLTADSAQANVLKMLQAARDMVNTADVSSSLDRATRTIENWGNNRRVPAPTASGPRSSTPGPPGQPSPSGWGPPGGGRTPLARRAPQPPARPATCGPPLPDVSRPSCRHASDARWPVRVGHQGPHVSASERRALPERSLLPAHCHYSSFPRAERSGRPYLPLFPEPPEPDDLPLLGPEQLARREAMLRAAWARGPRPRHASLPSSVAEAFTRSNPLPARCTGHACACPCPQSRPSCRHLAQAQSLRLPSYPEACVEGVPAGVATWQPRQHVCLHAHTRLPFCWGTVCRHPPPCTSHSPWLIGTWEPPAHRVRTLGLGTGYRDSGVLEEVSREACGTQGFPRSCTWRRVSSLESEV
Procedure: as §1, §2, §3, §4

[4] = target: T4, recombinant rat GluN1/GluN2D (Rattus norvegicus, UniProt P35439+Q62645); experiment: Two-electrode voltage-clamp recordings in Xenopus laevis oocytes, GluN2D
T4 construct: expressed in transfected cells; host or cells: Xenopus laevis oocytes injected with cRNA (GluN1:GluN2 ratio 1:2)
Procedure: as §1, §2, §3, §4

[5] = target: T5, recombinant rat GluN1/GluN2B (Rattus norvegicus, UniProt P35439+Q00960); experiment: Two-electrode voltage-clamp recordings in Xenopus laevis oocytes, GluN2B; conditions: oocytes, 100 μM glutamate and 30 μM glycine
T5 construct: expressed in transfected cells; host or cells: Xenopus laevis oocytes injected with cRNA (GluN1:GluN2 ratio 1:2)
Procedure: as §1, §2, §3, §4

[6] = target: T6, recombinant rat GluN1/GluN2D (Rattus norvegicus, UniProt Q62645); experiment: Two-electrode voltage-clamp recordings in Xenopus laevis oocytes, GluN2D; conditions: for 2A IC50 / 2D IC50 / 2B IC50 / 2D IC50: ratio of IC50 values
T6 construct: expressed in transfected cells; host or cells: Xenopus laevis oocytes injected with cRNA (GluN1:GluN2 ratio 1:2)
Procedure: as §1, §2, §3, §4

[7] = read-out: IC50 at GluN2D-containing receptors
[8] = GluN2C and GluN2D receptors, read-out: IC50 values at GluN2C and GluN2D receptors, range over the alcohol compounds
[9] = oocytes, 100 μM glutamate and 30 μM glycine, read-out: GluN2D IC50

SMILES: O=C(O)CC(F)(F)C(=O)N1N=C(c2c(-c3ccc(Cl)cc3)c3ccccc3[nH]c2=S)CC1c1ccc(Cl)cc1 (centres unmarked) [997-98, 4-(5-(4-chlorophenyl)-3-(4-(4-chlorophenyl)-2-thioxo-1,2-dihydroquinolin-3-yl)-4,5-dihydro-1H-pyrazol-1-yl)-3,3-difluoro-4-oxobutanoic acid]
- GluN2A IC50 [1]: inactive
- GluN2A IC50 ([1]; listed as 98): NE (NE indicates less than 50% inhibition at 30 μM.)
- GluN2B IC50 [2]: inactive
- GluN2B IC50 ([2]; listed as 98): NE (NE indicates less than 50% inhibition at 30 μM.)
- IC50 [3]: 0.44 µM
- IC50 [4, 7]: 0.14 µM

SMILES: O=C(CC(F)(F)CO)N1N=C(c2c(-c3cccc(F)c3)c3ccccc3[nH]c2=O)CC1c1ccc(Cl)cc1 (centres unmarked) [997-68, 3-[5-(4-chlorophenyl)-1-(3,3-difluoro-4-hydroxybutanoyl)-4,5-dihydro-1H-pyrazol-3-yl]-4-(3-fluorophenyl)quinolin-2(1H)-one]
- GluN2A IC50 [1]: NE (NE indicates less than 50% inhibition at 30 μM.)
- GluN2B IC50 [2]: NE (NE indicates less than 50% inhibition at 30 μM.)
- IC50 [3]: 4.3 µM
- IC50 [4, 8]: 0.8 to 2 µM
- IC50 [4, 9]: 1.4 µM

SMILES: O=C(O)CCC(=O)N1N=C(c2c(-c3ccc(F)cc3)c3ccccc3[nH]c2=O)CC1c1ccc(F)cc1 (centres unmarked) [997-105, 4-(5-(4-fluorophenyl)-3-(4-(4-fluorophenyl)-2-oxo-1,2-dihydroquinolin-3-yl)-4,5-dihydro-1H-pyrazol-1-yl)-4-oxobutanoic acid]
- GluN2A IC50 [1]: NE (NE indicates less than 50% inhibition at 30 μM.)
- GluN2B IC50 [2]: NE (NE indicates less than 50% inhibition at 30 μM.)
- IC50 [3]: 6.7 µM
- IC50 [4, 9]: 5.1 µM

SMILES: NC(=O)CC(F)(F)C(=O)N1N=C(c2c(-c3ccc(Cl)cc3)c3ccccc3[nH]c2=O)CC1c1ccc(Cl)cc1 (centres unmarked) [997-96, 4-(5-(4-chlorophenyl)-3-(4-(4-chlorophenyl)-2-oxo-1,2-dihydroquinolin-3-yl)-4,5-dihydro-1H-pyrazol-1-yl)-3,3-difluoro-4-oxobutanamide]
- IC50 [5]: 2.8 µM
- IC50 [3]: 0.5 µM
- 2A IC50 / 2D IC50 [6]: 150
- 2B IC50 / 2D IC50 [6]: 14
- IC50 [4, 9]: 0.2 µM

SMILES: O=C(O)CC(F)(F)C(=O)N1N=C(c2c(-c3ccc(F)cc3)c3ccccc3[nH]c2=O)CC1c1ccc(F)cc1 (centres unmarked) [997-103, 3,3-difluoro-4-(5-(4-fluorophenyl)-3-(4-(4-fluorophenyl)-2-oxo-1,2-dihydroquinolin-3-yl)-4,5-dihydro-1H-pyrazol-1-yl)-4-oxobutanoic acid]
- GluN2A IC50 [1]: NE (NE indicates less than 50% inhibition at 30 μM.)
- GluN2B IC50 [2]: NE (NE indicates less than 50% inhibition at 30 μM.)
- IC50 [3]: 7 µM
- IC50 [4, 9]: 3.1 µM

SMILES: O=C(O)CCC(=O)N1N=C(c2c(-c3ccncc3)c3ccccc3[nH]c2=O)CC1c1ccc(Cl)cc1 (centres unmarked) [997-82, 4-(5-(4-chlorophenyl)-3-(2-oxo-4-(pyridin-4-yl)-1,2-dihydroquinolin-3-yl)-4,5-dihydro-1H-pyrazol-1-yl)-4-oxobutanoic acid]
- GluN2A IC50 [1]: NE (NE indicates less than 50% inhibition at 30 μM.)
- GluN2B IC50 [2]: NE (NE indicates less than 50% inhibition at 30 μM.)

SMILES: O=C(O)CC(F)(F)C(=O)N1N=C(c2ccccc2-c2ccc(F)cc2F)CC1c1ccc(Cl)cc1 (centres unmarked) [997-121, 4-(5-(4-chlorophenyl)-3-(2′,4′-difluoro-[1,1′-biphenyl]-2-yl)-4,5-dihydro-1H-pyrazol-1-yl)-3,3-difluoro-4-oxobutanoic acid]
- GluN2A IC50 [1]: NE (NE indicates less than 50% inhibition at 30 μM.)
- GluN2B IC50 [2]: NE (NE indicates less than 50% inhibition at 30 μM.)
- IC50 [3]: 13.5 µM
- fold decrease of activity in comparison to 997-95 ([6]; comparator 997-95): 2 fold
- IC50 [4, 9]: 12.3 µM

SMILES: O=C(O)CC(F)(F)C(=O)N1N=C(c2ccccc2-c2ccc(Cl)cc2)CC1c1ccc(Cl)cc1 (centres unmarked) [997-95, 4-(3-(4′-chloro-[1,1′-biphenyl]-2-yl)-5-(4-chlorophenyl)-4,5-dihydro-1H-pyrazol-1-yl)-3,3-difluoro-4-oxobutanoic acid]
- IC50 [5]: 6.4 µM
- IC50 [3]: 4.8 µM
- 2A IC50 / 2D IC50 [6]: 5
- 2B IC50 / 2D IC50 [6]: 1
- IC50 [4, 9]: 6.2 µM

SMILES: O=C(N1N=C(c2c(-c3ccc(Cl)cc3)c3ccccc3[nH]c2=O)CC1c1ccc(Cl)cc1)C(F)(F)CCO (centres unmarked) [997-75, 4-(4-chlorophenyl)-3-[5-(4-chlorophenyl)-1-(2,2-difluoro-4-hydroxybutanoyl)-4,5-dihydro-1H-pyrazol-3-yl]quinolin-2(1H)-one]
- GluN2A IC50 [1]: NE (NE indicates less than 50% inhibition at 30 μM.)
- GluN2B IC50 [2]: NE (NE indicates less than 50% inhibition at 30 μM.)
- IC50 [3]: 17 µM
- IC50 [4, 8]: 0.8 to 2 µM
- IC50 [4, 9]: 2 µM

SMILES: Cc1ccc2[nH]c(=O)c(C3=NN(C(=O)CC(F)(F)CO)C(c4ccc(Cl)cc4)C3)c(-c3ccc(Cl)cc3)c2c1 (centres unmarked) [997-91, 4-(4-chlorophenyl)-3-[5-(4-chlorophenyl)-1-(3,3-difluoro-4-hydroxybutanoyl)-4,5-dihydro-1H-pyrazol-3-yl]-6-methylquinolin-2(1H)-one]
- GluN2A IC50 [1]: NE (NE indicates less than 50% inhibition at 30 μM.)
- GluN2B IC50 [2]: NE (NE indicates less than 50% inhibition at 30 μM.)
- IC50 [3]: 7.1 µM
- IC50 [4, 9]: 4.4 µM

SMILES: O=C(CC(F)(F)CO)N1N=C(c2c(-c3ccc(Cl)cc3)c3ccccc3[nH]c2=O)CC1c1ccc(Cl)cc1 (centres unmarked) [997-67, 4-(4-chlorophenyl)-3-[5-(4-chlorophenyl)-1-(3,3-difluoro-4-hydroxybutanoyl)-4,5-dihydro-1H-pyrazol-3-yl]quinolin-2(1H)-one]
- GluN2A IC50 [1]: NE (NE indicates less than 50% inhibition at 30 μM.)
- GluN2B IC50 [2]: NE (NE indicates less than 50% inhibition at 30 μM.)
- IC50 [4, 8]: 0.8 to 2 µM

SMILES: O=C(O)CCC(=O)N1N=C(c2ccccc2-c2ccc(Cl)cc2)CC1c1ccc(Cl)cc1 (centres unmarked) [997-99, 4-(3-(4′-chloro-[1,1′-biphenyl]-2-yl)-5-(4-chlorophenyl)-4,5-dihydro-1H-pyrazol-1-yl)-4-oxobutanoic acid]
- GluN2A IC50 [1]: NE (NE indicates less than 50% inhibition at 30 μM.)
- GluN2B IC50 [2]: NE (NE indicates less than 50% inhibition at 30 μM.)
- IC50 [3]: 16 µM
- IC50 [4, 9]: 12 µM

SMILES: O=C(O)CC(F)(F)C(=O)N1N=C(c2c(-c3ccc(Cl)cc3)c3ccccc3[nH]c2=O)CC1c1ccc(Cl)s1 (centres unmarked) [997-110, 4-(3-(4-(4-chlorophenyl)-2-oxo-1,2-dihydroquinolin-3-yl)-5-(5-chlorothiophen-2-yl)-4,5-dihydro-1H-pyrazol-1-yl)-3,3-difluoro-4-oxobutanoic acid]
- IC50 [5]: 100 µM
- IC50 [3]: 0.43 µM
- selectivity at GluN2D- over GluN2B-containing receptor [6]: 625 fold
- fold decrease of potency at GluN2D in comparison to 997-74 ([6]; comparator 997-74): 3 fold
- 2B IC50 / 2D IC50 [6]: 625
- IC50 [4, 7]: 0.16 µM

SMILES: NC(=O)C(F)(F)CC(=O)N1N=C(c2c(-c3ccc(Cl)cc3)c3ccccc3[nH]c2=O)CC1c1ccc(Cl)cc1 (centres unmarked) [997-115, 4-(5-(4-chlorophenyl)-3-(4-(4-chlorophenyl)-2-oxo-1,2-dihydroquinolin-3-yl)-4,5-dihydro-1H-pyrazol-1-yl)-2,2-difluoro-4-oxobutanamide]
- GluN2A IC50 [1]: NE (NE indicates less than 50% inhibition at 30 μM.)
- GluN2B IC50 [2]: NE (NE indicates less than 50% inhibition at 30 μM.)
- IC50 [3]: 1.44 µM
- IC50 [4, 9]: 0.343 µM
